Measured values published in patent US7250489B2, “Purified linear polypeptide epitope from walnuts and associated methods” (priority 2001, dated 2007).
No end group written: not given here.

What was measured:
Design in all cases: species or system human
[1] = test system: IgE of walnut-allergic patients' sera; assay: IgE binding to solid phase synthetic peptides (SPOTs analysis); settings: for number of patients' sera positive for the peptide: 20 individual patients' sera
Source text: The study was approved by the Human Subjects Review Committee at the University of California, Davis. Sera from 20 walnut-allergic patients with a convincing history of life-threatening systemic allergic reactions to walnuts, positive ImmunoCAP assays (Pharmacia, Inc., Diagnostics, Columbus, Ohio), and evidence of IgE against rJug r 1 (see below) were used in this study. Control sera were obtained from atopic patients with no history of walnut sensitivity, and one patient with life-threatening reactions to walnuts, positive ImmunoCAP assay, positive serum IgE immunoblot to walnut proteins, but negative for binding to the 2S albumin.
Based on the published amino acid sequence of Jug r 1 and our unpublished data determining the subunit cleavage sites,^6 twenty-five 13-amino acid peptides, offset by three amino acids, were synthesized which corresponded to the entire 64-amino acid length of the large subunit (FIG. 1A) and 26-amino acid length of the small subunit (FIG. 1B). Additional peptides bearing the target epitope (QGLRGEEMEEMV), SEQ ID NO:1, mutated forms of this peptide, and a non-IgE binding peptide (LSQRGLQSSSV), SEQ ID NO:6, were also synthesized. […] versions of the target peptide were created via a single site alanine substitution at each position along the amino acid sequence, and six mutated peptides were synthesized using multiple alanine substitutions, as shown in FIG. 6.
Peptides were synthesized on derivatized cellulose sheets using 9-fluorenlymethoxy carbonyl-derived (Fmoc) amino acids as described by the manufacturer (Genosys Biotechnologies, Inc., The Woodlands, Tex.). Briefly, cellulose membranes containing free hydroxy groups were esterfied with an Fmoc-amino acid dissolved in 1-methyl-2 pyrrolidione. The coupling reaction was followed by washing in N,N-dimethylformamide (DMF) and the amino acids were acetylated with acetic anhydride. The membranes were deprotected by washing in DMF and incubation with a solution of 20% piperidine in DMF followed by another wash in DMF. Coupling, acetylation, and deprotection steps were repeated for each cycle. During the final cycle, a mixture of dichloromethane, trifluoroacetic acid, and triisobutylsilane (1:1:0.05) was used to deprotect the acid-labile amino acid side chains.
(§1) The peptide-containing membranes were washed in TBS and incubated o/n at RT in blocking solution as directed by the manufacturer (Genosys Biotechnologies, Inc., The Woodlands, Tex.). Membranes were then washed in TBS-T for 10 min and incubated o/n at 4° C. with individual patient's serum or pooled patients' sera diluted 1:5 in blocking buffer (total sera:blocking buffer). This incubation was followed by three 5-min washes in TBS-T and an o/n (4° C.) incubation with ^125I-anti-human IgE (Hycor Biomedical Inc., Garden Grove, Calif.) diluted 1:10 in a mixture of PBS, 5% nonfat dry milk, and 0.05% Tween-20. Three final 10 min washes in PBS/0.05% Tween-20 were performed and IgE-peptide reactivity identified after a 48 hr exposure at −70° C. to Kodak Biomax x-ray film.

[2] = test system: E1-specific IgE of patients' sera; assay: Inhibition by soluble epitope peptide of IgE binding to solid-phase E1 peptide
Procedure: as §1
A soluble form of an identified IgE-reactive peptide is (QGLRGEEMEEMV) was synthesized by Fmoc protocols on an automated peptide synthesizer (Model 433A, Applied Biosystems, Foster City, Calif.).
(§2) To test the specificity and reactivity of the epitope-specific IgE, control, pooled and fractionated patients' sera were pre-incubated o/n at 4° C. with different amounts (70, 7.0, and 0.7 μg) of the soluble epitope peptide, or a soluble non-specific peptide. […] Detection of IgE binding to the solid-phase synthetic peptides and dot-blotted rJug r 1 was detected using ^125I-anti-human IgE and ECL+, respectively, as described earlier.

[3] = test system: patient serum IgE binding to rJug r 1; assay: Inhibition by soluble epitope peptide of IgE binding to dot-blotted rJug r 1
Procedure: For dot-blot assays, a graphite pencil was used to circumscribe 4 mm×8 mm elipses on a dry 0.4 μm NC membrane (Shleicher & Schuell; Keen, N.H.). The NC was incubated in distilled-deionized water (ddH2O) on a rocking table for 5 min and allowed to air dry before each dot was loaded with 0.11 μg of rJug r 1 in 2 μl of ddH2O. The antigen-loaded NC was then rinsed in ddH2O as described above, placed protein side up on 3MM paper (Whatman Intl. Ltd., Maidstone, England), and dried under a 60-watt light until all moisture was removed. […]
as §2

[4] = of the 20 patients tested, FIG. 4

Sequence | number of patients' sera positive for the peptide [1] | number of patients exhibiting moderate recognition of the epitope peptide [1, 4] | number of patients exhibiting strong recognition of the epitope peptide [1, 4] | number of patients exhibiting weak recognition of the epitope peptide [1, 4] | number of patients showing no recognition of the epitope peptide [1, 4] | inhibition of binding of E1-specific IgE to the solid phase epitope ([2]; 70 μg soluble peptide) | inhibition of IgE binding to solid-phase E1 peptide ([2]; 70, 7.0, 0.7 μg peptide pre-incubated with whole patients' sera, FIG. 5C) | inhibition of IgE binding to rJug r 1, eluate (E1 epitope-specific) IgE fractions ([3]; 70 μg soluble peptide, affinity column purified IgE fractions) | inhibition of binding of IgE to the intact rJug r 1 ([3]; patients' IgE, soluble peptide)
LSQRSQQQCRQ [(−) peptide, reference compound] | none |  |  |  |  |  |  |  | 
QGLRGEEMEEMV (not fully specified; listed as Juglans regia) [E1, solid-phase and soluble forms] | 15 | six | five | four | five | completely inhibit | Partial to complete inhibition | Inhibition was again observed | did not completely inhibit
